Results published in patent US5189021A, “Method of treating precocious puberty” (Roussel Uclaf, priority 1979, dated 1993).

Assays:
ovarian steroidogenosis = assay: Inhibitory activity on ovarian steroidogenesis in women; format: in vivo; settings: for reduction of seric levels of progesterone compared to the controls: typical levels (sheet 3)
Procedure: The inhibitory activity of [D Ser (tbu)^6 of des GlyNH2^10 ] LH-RH ethylamide on ovarian steroidogenosis in women was determined on 6 women aged 26 to 35 years with normal and regular menstrual cycles and without prior endocrinal or gynecological problems. The study was conducted for 6 consecutive cycles consisting of 2 pretreatment cycles, 2 treatment cycles and 2 post-treatment cycles. Two drops of a solution containing 500 μg of [D Ser (tbu)^6 des GlyNH2^10 ] LH-RH ethylamide were deposited on each nostril at 8 A.M. and 5 P.M. of a day between the 4th and 9th day after the peak of LH-day 0. Daily blood samples were taken between 4 and 6 P.M. to measure seric levels of LH, FSH, progesterone and estradiol which were determined by radioimmumo-logictests with double antibodies. The antibodies to measure LH and FSH were furnished by the National Pituitory Agency of N.I.H. of Bethesda, Md.
Estradiol and progesterone were measured with highly specific antibodies developed against 7-(O-carboxymethyl)-oxime of estradiol and 12-(O-carboxymethyl)-oxime of progesterone, respectively [3H] 17β-estradiol and ^125 I-progesterone-12-[O-carboxymethyl)-oxime]used as tracers. The serum was extracted with benzene and the steroids were separated with a LH-20 column before the determination. The radioimmunological results were exploited by the program derived from model II of Rodbard and Lewald as in Example 1 and the statistical significance was measured by the multiple level test of Ducan-Kramer of Example 1. The results are shown in the graphs of sheets 3 to 5 of the Figures.

[1] = tested on: testicular steroidogensis; assay: Inhibitory activity against testicular steroidogenesis in men in good health, single intranasal dose; format: in vivo
Procedure: The inhibitory activity of [D Ser (tbu)^6 of des GlyNH^10 ] LH-RH ethylamide (described in German application Ser. No. 2,438,350) against testicular steroidogensis in men in good health was determined on men in good health aged 30 to 40 years. The said product was administered intranasally at a dose of 500 μg in a few drops of distilled water at 8 A.M. on the third day of the test. For 2 days prior to the treatment and for 6 days after the treatment, samples of blood were taken daily at 8 A.M., 3 P.M. and 10 P.M. On the day of administration of the LH-RH agonist, blood samples were taken at 11 A.M. and 6 P.M.
The seric concentrations of LH and FSH were measured by radioimmuno-logic dosages with double antibodies and the antibodies for measuring LH and FSH were furnished by the National Pituitary Agency of N.I.H. in Bethesda, Md. The seric concentrations of steroids was measured by radio-immuno-logic dosages in which one ml of serum was extracted with ether and the steroids were separated on a LH-20 column before measuring with radioimmuno-logic dosages. The radio-immuno-logic dosage results were determined by a program derived from model II of Rodbard et al [Second Karolinska Symposium on Research Methods in Reproductive Endroerinology Diczfalusky Editor, Copenhague (1970), p. 79-103]. The statistical significance was determined by the "multiple level test" of Duncan-Kramer [Kramer, Biometrics, Vol 12 (1956), p. 307]. The results are shown in the graphs on sheet 1 of the Figures filed herewith.

[2] = tested on: testicular steriodogenosis; assay: Inhibitory activity on testicular steroidogenesis in a patient with prostate cancer; format: in vivo, human; settings: 500 μg intranasally twice a day
Source text: The inhibitory activity of [D Ser (tbu)^6 of des GlyNH2^10 ] […] The results are reported in the graphs of sheet 2 of the Figures.

[3] = 3rd day following administration, intranasal 500 μg
[4] = after single intranasal dose of 500 μg

SMILES: CCNC(=O)[C@@H]1CCCN1C(=O)[C@H](CCCNC(=N)N)NC(=O)[C@H](CC(C)C)NC(=O)[C@@H](COC(C)(C)C)NC(=O)[C@H](Cc1ccc(O)cc1)NC(=O)[C@H](CO)NC(=O)[C@H](Cc1c[nH]c2ccccc12)NC(=O)[C@H](Cc1c[nH]cn1)NC(=O)[C@@H]1CCC(=O)N1 [[D Ser (tbu)^6 des GlyNH2^10] LH-RH ethylamide]
- level of progesterone reduced as compared to the controls (ovarian steroidogenosis; 12 cycles, sheet 5, scale 13 to 127%): 46%
- level of progesterone as % of control values (pretreatment cycles = 100%) (ovarian steroidogenosis; cycles of post-treatment, 12 cycles): 99%
- level of progesterone as % of control values (pretreatment cycles = 100%) (ovarian steroidogenosis; cycles of treatment, 12 cycles): 46%
- reduction of seric levels of progesterone compared to the controls (ovarian steroidogenosis; first cycle of treatment): 13%
- reduction of seric levels of progesterone compared to the controls (ovarian steroidogenosis; second cycle of treatment): 34%
- level of seric progesterone in the 2 cycles of treatment (ovarian steroidogenosis; sheet 4): accelerated diminution
- concentration of 17-OH-progesterone relative to the initial control values [1, 3]: 40%
- concentration of testosterone relative to the initial control values [1, 3]: 50%
- day on which the steroid level returned to normal [1, 4]: fourth day
- duration of the drop of seric levels of testicular steroids (testosterone and its precursors) [1, 4]: 3 days
- LH and FSH plasmatic levels ([1]; intranasal 500 μg): increase
- seric concentration of pregnenolone, 17-OH-pregnenolone, progesterone, 17-OH-progesterone, Δ5-androstene-3β,17β-diol and testosterone ([1]; on the day of treatment, intranasal 500 μg): increased
- diminution of the level of testosterone ([1]; single intranasal dose of 500 μg, human, 3rd day following administration): 50%
- androgenic steroids (plasmatic level) ([2]; prostate cancer patient): diminution
- level of testosterone ([2]; two weeks of treatment): stabilized at a very low level
